From US9409952B2, “Peptide-compound cyclization method” (Chugai Seiyaku Kabushiki Kaisha, priority 2011, dated 2016)
Starred links: 1 amine or outer side, 2 acyl side, 3 side chain; linkers in the order of their positions; H or OH if unused. Positions of bridges follow the written chain, without caps; N, C: chain ends. Non-standard residues stand in square brackets, D forms with d. Residues, ends and D or L forms follow the SMILES beside them. *: point of attachment. NMeF = CN[C@@H](Cc1ccccc1)C(=O)O; NMeβAla = CN(CCC(=O)[*:2])[*:1]; NMeL = CN[C@@H](CC(C)C)C(=O)O; NMeV = CN[C@H](C(=O)O)C(C)C; NMeA = CN[C@@H](C)C(=O)O; Piperidide = C1CCN(*)CC1; dNMeA = CN[C@H](C)C(=O)O; Sar = CNCC(=O)O; tBu = CC(C)(C)*

Experiments:
[1] = PAMPA (parallel artificial membrane permeability assay); assay type: in vitro ADME; details: PAMPA; membrane permeation rate (Pe); 50 mM MOPSO buffer pH 6.5 with 5.0% glycocholic acid, 37° C., 18 hours; read-out: iPAMPA Pe
Outline: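 Artificial membrane was 10% (w/v) egg lecithin plus 0.5% (w/v) cholesterol in dodecane on a PVDF filter. A 10 mM DMSO stock was added at 0.5% (v/v) to donor buffer (50 mM MOPSO, pH 6.5, 5.0% glycocholic acid). After 18 h at 37 °C, LC/MS or LC/UV gave donor and acceptor levels for Pe.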

[2] = Metabolic stability in human hepatic microsome; assay type: in vitro ADME; details: microsomes, pH 7.4; human hepatic microsome, NADPH(+); read-out: CL NADPH(+)

| Structure (SMILES) | Papp at 18 hours, 50 µM [1] | microsomal CLint at 1 uM [2] |
| --- | --- | --- |
| CC[C@H](C)[C@@H]1NC(=O)[C@H](C(C)C)N(C)C(=O)[C@@H](C)N(C)C(=O)C[C@@H](C(=O)N2CCCCC2)NC(=O)[C@H](CC(C)C)NC(=O)[C@H](Cc2ccccc2)N(C)C(=O)[C@H](CC(C)C)N(C)C(=O)[C@H](Cc2ccccc2)NC(=O)[C@H]([C@@H](C)O)NC(=O)[C@H](CC(C)C)NC1=O [DP-339] ([dNMeA][NMeV]ILTF[NMeL][NMeF]LD-Piperidide; lactam N-10) | 18 ×10⁻⁶ cm/s | 213 µL/min/mg |
| CC(C)C[C@H]1C(=O)N[C@@H](COC(C)(C)C)C(=O)N(C)[C@@H](Cc2ccccc2)C(=O)N(C)[C@@H](C)C(=O)N[C@@H](Cc2ccccc2)C(=O)N(C)[C@@H](C(C)C)C(=O)N[C@H](C(=O)N2CCCCC2)CC(=O)N(C)[C@H](C)C(=O)N[C@@H]([C@@H](C)O)C(=O)NCC(=O)N1C [DP-340] ([dNMeA]TG[NMeL]S(tBu)[NMeF][NMeA]F[NMeV]D-Piperidide; lactam N-10) | 31 ×10⁻⁶ cm/s | 86 µL/min/mg |
| CC(C)C[C@H]1C(=O)N[C@@H](C)C(=O)N(C)[C@@H](Cc2ccccc2)C(=O)N(C)[C@@H](C)C(=O)N(C)[C@@H](Cc2ccccc2)C(=O)N[C@@H]([C@@H](C)O)C(=O)N(C)[C@@H](C)C(=O)N[C@H](C(=O)N2CCCCC2)CC(=O)N(C)[C@H](C)C(=O)N(C)[C@@H](C)C(=O)N1C [DP-341] ([dNMeA][NMeA][NMeL]A[NMeF][NMeA][NMeF]T[NMeA]D-Piperidide; lactam N-10) | 9.5 ×10⁻⁶ cm/s | 69 µL/min/mg |
| CC[C@H](C)[C@@H]1NC(=O)[C@H](CC(C)C)N(C)C(=O)CN(C)C(=O)[C@H]([C@@H](C)O)NC(=O)[C@H](Cc2ccccc2)N(C)C(=O)[C@H](CC(C)C)N(C)C(=O)[C@H](C)N(C)C(=O)C[C@@H](C(=O)N2CCCCC2)NC(=O)[C@H](CC(C)C)N(C)C1=O [DP-342] ([NMeA][NMeL][NMeF]T[Sar][NMeL]I[NMeL]D-Piperidide; lactam N-9) | 33 ×10⁻⁶ cm/s | 121 µL/min/mg |
| CC(C)C[C@@H]1NC(=O)[C@@H](C)N(C)C(=O)C[C@@H](C(=O)N2CCCCC2)NC(=O)[C@H]([C@@H](C)O)NC(=O)[C@H](CC(C)C)N(C)C(=O)[C@H](CC(C)C)N(C)C(=O)[C@H](Cc2ccccc2)NC(=O)[C@H](CC(C)C)N(C)C(=O)[C@H](Cc2ccccc2)N(C)C1=O [DP-343] ([dNMeA]L[NMeF][NMeL]F[NMeL][NMeL]TD-Piperidide; lactam N-9) | 36 ×10⁻⁶ cm/s | 427 µL/min/mg |
| CC(C)C[C@H]1C(=O)N(C)[C@@H](C)C(=O)N(C)[C@@H](Cc2ccccc2)C(=O)N[C@@H]([C@@H](C)O)C(=O)N(C)[C@@H](C)C(=O)N(C)[C@@H](Cc2ccccc2)C(=O)N[C@H](C(=O)N(C)[C@@H](Cc2ccccc2)C(=O)N[C@@H](C)C(=O)N2CCCCC2)CC(=O)N(C)[C@@H](C)C(=O)N(C)[C@@H](C)C(=O)N(C)[C@@H](CC(C)C)C(=O)N[C@@H](C)C(=O)N1C [DP-344] ([NMeA][NMeA][NMeL]A[NMeL][NMeA][NMeF]T[NMeA][NMeF]D[NMeF]A-Piperidide; lactam N-11) | 22 ×10⁻⁶ cm/s | 30 µL/min/mg |
| CC(C)C[C@H]1C(=O)N(C)[C@@H](C)C(=O)N[C@@H]([C@@H](C)O)C(=O)N(C)[C@@H](C)C(=O)N(C)[C@@H](Cc2ccccc2)C(=O)N(C)CC(=O)N[C@H](C(=O)N(C)[C@@H](Cc2ccccc2)C(=O)N[C@@H](C)C(=O)N2CCCCC2)CC(=O)N(C)[C@@H](C)C(=O)N(C)[C@@H](C)C(=O)N[C@@H](C)C(=O)N[C@@H](Cc2ccccc2)C(=O)N1C [DP-345] ([NMeA][NMeA]AF[NMeL][NMeA]T[NMeA][NMeF][Sar]D[NMeF]A-Piperidide; lactam N-11) | 2.8 ×10⁻⁶ cm/s | 7 µL/min/mg |
| CC(C)C[C@H]1C(=O)N(C)[C@@H](C)C(=O)N(C)[C@@H](Cc2ccccc2)C(=O)N[C@@H]([C@@H](C)O)C(=O)N(C)[C@@H](C)C(=O)N(C)[C@@H](Cc2ccccc2)C(=O)N(C)[C@@H](C)C(=O)N[C@H](C(=O)N(C)[C@@H](Cc2ccccc2)C(=O)N[C@@H](C)C(=O)N2CCCCC2)CC(=O)N(C)CCC(=O)N(C)[C@@H](C)C(=O)N[C@@H](C)C(=O)N1C [DP-346] ([NMeβAla][NMeA]A[NMeL][NMeA][NMeF]T[NMeA][NMeF][NMeA]D[NMeF]A-Piperidide; lactam N-11) | 4 ×10⁻⁶ cm/s | 7 µL/min/mg |
| CC(C)C[C@H]1C(=O)N[C@@H](C)C(=O)N(C)[C@@H](Cc2ccccc2)C(=O)N(C)[C@@H](C)C(=O)N(C)[C@@H](Cc2ccccc2)C(=O)N[C@H](C(=O)N(C)[C@@H](Cc2ccccc2)C(=O)N[C@@H](C)C(=O)N2CCCCC2)CC(=O)N(C)[C@H](C)C(=O)N(C)[C@@H](C)C(=O)N(C)[C@@H](CC(C)C)C(=O)N[C@@H]([C@@H](C)O)C(=O)N(C)[C@@H](C)C(=O)N1C [DP-347] ([dNMeA][NMeA][NMeL]T[NMeA][NMeL]A[NMeF][NMeA][NMeF]D[NMeF]A-Piperidide; lactam N-11) | 25 ×10⁻⁶ cm/s | 40 µL/min/mg |
| CC(C)C[C@H]1C(=O)N(C)[C@@H](Cc2ccccc2)C(=O)N[C@@H]([C@@H](C)O)C(=O)N(C)[C@@H](C)C(=O)N[C@@H](C)C(=O)N(C)[C@@H](Cc2ccccc2)C(=O)N[C@@H](C)C(=O)N(C)[C@@H](C(C)C)C(=O)N(C)[C@@H](C)C(=O)N[C@H](C(=O)N(C)[C@@H](Cc2ccccc2)C(=O)N[C@@H](C)C(=O)N2CCCCC2)CC(=O)N(C)[C@H](C)C(=O)N1C [DP-348] ([dNMeA][NMeL][NMeF]T[NMeA]A[NMeF]A[NMeV][NMeA]D[NMeF]A-Piperidide; lactam N-11) | 19 ×10⁻⁶ cm/s | 17 µL/min/mg |
| CC(C)C[C@H]1C(=O)N[C@H](C(=O)N(C)[C@@H](Cc2ccccc2)C(=O)N[C@@H](C)C(=O)N2CCCCC2)CC(=O)N(C)[C@@H](C)C(=O)N(C)[C@@H](C)C(=O)N[C@@H](C(C)C)C(=O)N(C)[C@@H](C)C(=O)N(C)[C@@H](Cc2ccccc2)C(=O)N[C@@H]([C@@H](C)O)C(=O)N(C)CC(=O)N(C)[C@@H](C)C(=O)N1C [DP-349] ([NMeA][NMeA]V[NMeA][NMeF]T[Sar][NMeA][NMeL]D[NMeF]A-Piperidide; lactam N-10) | 3.9 ×10⁻⁶ cm/s | 13 µL/min/mg |
| CC(C)C[C@@H]1NC(=O)[C@H](CC(C)C)N(C)C(=O)[C@H](C)N(C)C(=O)C[C@@H](C(=O)N(C)[C@@H](Cc2ccccc2)C(=O)N[C@@H](C)C(=O)N2CCCCC2)NC(=O)[C@H](CC(C)C)N(C)C(=O)[C@H](Cc2ccccc2)NC(=O)[C@H](Cc2ccccc2)N(C)C(=O)[C@H](C)NC(=O)[C@H]([C@@H](C)O)NC(=O)[C@H](CC(C)C)N(C)C1=O [DP-350] ([NMeA][NMeL]L[NMeL]TA[NMeF]F[NMeL]D[NMeF]A-Piperidide; lactam N-10) | 2 ×10⁻⁶ cm/s | 29 µL/min/mg |
| CC(C)C[C@@H]1NC(=O)[C@H]([C@@H](C)O)NC(=O)[C@H](CC(C)C)N(C)C(=O)[C@H](C)N(C)C(=O)[C@H](Cc2ccccc2)N(C)C(=O)[C@H](Cc2ccccc2)NC(=O)[C@H](CC(C)C)N(C)C(=O)CCN(C)C(=O)C[C@@H](C(=O)N(C)[C@@H](Cc2ccccc2)C(=O)N[C@@H](C)C(=O)N2CCCCC2)NC(=O)[C@H](CC(C)C)N(C)C1=O [DP-351] ([NMeβAla][NMeL]F[NMeF][NMeA][NMeL]TL[NMeL]D[NMeF]A-Piperidide; lactam N-10) | 63 ×10⁻⁶ cm/s | 51 µL/min/mg |
